# Reference: US11965039B2, “Compstatin analogues and their medical uses” (priority 2018, dated 2024)
# System: classical complement pathway
# Experiment: In vitro haemolysis assay (inhibition of classical complement pathway)
# Type: cell-based, human
# Conditions: human serum, sensitized sheep red blood cells; Table 3, given as upper bounds; read-out: IC50, inhibition of hemolysis
# Procedure: The in vitro effect of the compounds of the present invention was assessed by measuring their inhibitory effect of the classical complement pathway in a haemolysis assay. Briefly, compounds of the present invention and reference compounds were dissolved in DMSO and diluted in Tris/Casein Assay Buffer (10 mM Tris, 145 mM NaCl, 0.5 mM MgCl2, 0.15 mM CaCl2), and 0.1% W/V Casein, adjusted to pH 7.4) as 9-point serial dilutions in a 96 well plate. Sensitized sheep red blood cells (RBC) coated with rabbit anti-sheep erythrocyte antiserum (Complement Technology, Inc., TX, USA) were washed in Tris/Casein Assay Buffer. […] from each well of diluted compound was added to a 96-well plate containing 50 μL diluted human serum (Complement Technology, Inc., TX, USA) and incubated for 15 minutes at room temperature. The serum dilution factor was optimized for every serum batch to obtain 70-90% of maximal haemolysis using the protocol. Then 50 μL sensitized sheep red blood cells were added to all wells (10^7 per well). After 30 minutes of incubation at 37 QC with gentle agitation, the reaction was stopped by addition of 50 μL Tris STOP Buffer per well (10 mM EDTA, 10 mM Tris, 145 mM NaCl adjusted to pH 7.4). The RBCs were then removed by centrifugation and the resulting supernatant measured for hemolysis by absorbance at 405 nm. […]
substance,measurement,value
Ac-IC(1)IWQDWGEHRC(1)TEG-K((15-carboxy-pentadecanoyl)-[(Piperazine-1-yl)-acetyl][Peg3][Peg3])-NH2 [Compound 95],IC50,< 500 nM
